Measurements: patent US11053218B2, “3-(1-oxoisoindolin-2-yl)piperidine-2,6-dione derivatives and uses thereof” (Novartis AG, priority 2017, dated 2021)

Experiments:
IKZF2 = IKZF2 (Homo sapiens, UniProt Q96SW2+Q9UKS7); assay: Prolabel quantification of IKZF2 protein levels in 293GT cells; assay type: cell-based; conditions: 293GT cells; for inhibition at 10 µM: 24 h, read-out: IKZF2 % protein reduction at 10 μM, 24 h; for DC50: Prolabel assay, read-out: IKZF2 EC50
IKZF1 = IKZF1 (Homo sapiens, UniProt Q13422+Q96SW2); assay: Prolabel quantification of IKZF1 protein levels in 293GT cells; assay type: cell-based; conditions: Prolabel assay, read-out: IKZF1 EC50
Sequence of IKZF1 (Q13422 whole entry): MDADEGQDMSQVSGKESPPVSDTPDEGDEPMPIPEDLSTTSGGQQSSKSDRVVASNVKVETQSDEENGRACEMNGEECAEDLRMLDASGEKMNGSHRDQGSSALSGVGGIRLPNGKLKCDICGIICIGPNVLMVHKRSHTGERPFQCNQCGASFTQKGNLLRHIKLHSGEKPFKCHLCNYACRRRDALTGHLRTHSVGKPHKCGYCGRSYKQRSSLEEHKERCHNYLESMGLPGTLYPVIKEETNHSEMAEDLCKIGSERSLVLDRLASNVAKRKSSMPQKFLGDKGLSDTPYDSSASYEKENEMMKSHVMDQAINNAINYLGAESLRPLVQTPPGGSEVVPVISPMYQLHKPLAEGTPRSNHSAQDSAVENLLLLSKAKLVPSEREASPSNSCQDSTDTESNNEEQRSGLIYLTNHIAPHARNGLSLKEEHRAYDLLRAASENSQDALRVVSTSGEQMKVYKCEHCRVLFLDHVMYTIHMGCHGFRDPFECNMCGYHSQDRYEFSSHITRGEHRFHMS
Sequence of IKZF1 (Q96SW2 whole entry): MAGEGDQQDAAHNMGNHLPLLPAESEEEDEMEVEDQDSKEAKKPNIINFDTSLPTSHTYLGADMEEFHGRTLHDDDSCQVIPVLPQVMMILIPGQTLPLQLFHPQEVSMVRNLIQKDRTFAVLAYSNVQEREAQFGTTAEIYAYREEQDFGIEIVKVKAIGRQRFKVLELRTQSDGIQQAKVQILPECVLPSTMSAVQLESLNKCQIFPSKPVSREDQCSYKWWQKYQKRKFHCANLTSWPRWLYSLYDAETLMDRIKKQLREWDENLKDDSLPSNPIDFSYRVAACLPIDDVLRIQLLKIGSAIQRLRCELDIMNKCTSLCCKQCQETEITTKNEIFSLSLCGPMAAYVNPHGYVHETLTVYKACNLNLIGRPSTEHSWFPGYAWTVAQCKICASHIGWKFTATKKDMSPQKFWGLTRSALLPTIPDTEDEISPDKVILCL
Sequence of IKZF1 (Q16531 whole entry partner): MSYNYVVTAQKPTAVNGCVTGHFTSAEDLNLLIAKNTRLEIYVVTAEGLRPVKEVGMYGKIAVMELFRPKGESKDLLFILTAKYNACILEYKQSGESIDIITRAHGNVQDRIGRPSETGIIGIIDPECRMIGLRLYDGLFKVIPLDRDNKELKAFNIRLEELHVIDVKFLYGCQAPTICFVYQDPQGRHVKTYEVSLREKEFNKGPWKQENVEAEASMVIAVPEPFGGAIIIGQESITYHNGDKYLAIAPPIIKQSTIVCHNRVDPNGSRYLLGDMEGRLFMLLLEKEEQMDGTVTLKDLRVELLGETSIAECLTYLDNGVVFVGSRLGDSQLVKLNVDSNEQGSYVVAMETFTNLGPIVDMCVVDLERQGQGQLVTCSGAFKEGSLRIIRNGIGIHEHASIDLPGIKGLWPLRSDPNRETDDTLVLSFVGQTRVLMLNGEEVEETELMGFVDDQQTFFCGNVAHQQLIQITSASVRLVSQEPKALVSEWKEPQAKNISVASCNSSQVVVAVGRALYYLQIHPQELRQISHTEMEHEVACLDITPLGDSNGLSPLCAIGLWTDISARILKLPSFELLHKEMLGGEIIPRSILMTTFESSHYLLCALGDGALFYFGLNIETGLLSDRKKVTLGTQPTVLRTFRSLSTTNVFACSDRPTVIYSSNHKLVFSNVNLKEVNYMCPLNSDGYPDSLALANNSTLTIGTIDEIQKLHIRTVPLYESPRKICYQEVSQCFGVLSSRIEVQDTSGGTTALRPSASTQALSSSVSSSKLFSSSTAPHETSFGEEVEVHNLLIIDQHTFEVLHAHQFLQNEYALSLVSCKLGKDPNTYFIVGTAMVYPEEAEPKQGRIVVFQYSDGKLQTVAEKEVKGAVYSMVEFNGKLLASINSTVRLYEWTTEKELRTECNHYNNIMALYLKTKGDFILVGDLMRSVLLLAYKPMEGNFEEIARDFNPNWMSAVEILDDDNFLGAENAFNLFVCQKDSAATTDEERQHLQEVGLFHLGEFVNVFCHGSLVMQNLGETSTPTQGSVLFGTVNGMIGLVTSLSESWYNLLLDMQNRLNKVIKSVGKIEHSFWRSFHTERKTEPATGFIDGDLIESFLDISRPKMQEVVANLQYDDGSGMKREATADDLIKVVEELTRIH

Sequence of IKZF2 (Q9UKS7 whole entry): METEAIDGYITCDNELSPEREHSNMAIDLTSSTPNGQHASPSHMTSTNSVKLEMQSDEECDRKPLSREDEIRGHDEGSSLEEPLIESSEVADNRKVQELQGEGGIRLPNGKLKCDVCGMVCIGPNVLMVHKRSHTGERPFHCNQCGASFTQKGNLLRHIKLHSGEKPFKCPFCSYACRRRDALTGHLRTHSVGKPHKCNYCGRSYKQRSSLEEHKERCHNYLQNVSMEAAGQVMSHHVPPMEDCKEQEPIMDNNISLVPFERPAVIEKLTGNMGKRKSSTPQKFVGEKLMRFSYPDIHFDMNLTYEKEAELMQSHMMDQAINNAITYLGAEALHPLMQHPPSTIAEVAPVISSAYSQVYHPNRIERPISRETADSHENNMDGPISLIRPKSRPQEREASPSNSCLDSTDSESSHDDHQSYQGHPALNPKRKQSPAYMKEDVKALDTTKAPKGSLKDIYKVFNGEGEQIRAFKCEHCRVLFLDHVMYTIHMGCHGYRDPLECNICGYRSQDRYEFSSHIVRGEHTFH
Sequence of IKZF2 (Q96SW2 whole entry): as the sequence (Q96SW2 whole entry) above
Sequence of IKZF2 (Q16531 whole entry partner): as the sequence (Q16531 whole entry partner) above

**Q.** What does the source list for CC(C)(C)c1ccc(C(=O)N2CCC(c3ccc4c(c3)CN(C3CCC(=O)NC3=O)C4=O)CC2)cc1 (stereo not drawn) [Compound I-242, 3-(5-(1-(4-(tert-butyl)benzoyl)piperidin-4-yl)-1-oxoisoindolin-2-yl)piperidine-2,6-dione]?
**A.** inhibition at 10 µM (IKZF2): 5%; DC50 (IKZF2): > 30000 nM; DC50 (IKZF1): > 30000 nM

**Q.** How did the inhibition at 10 µM (IKZF2) turn out when O=C1CCC(N2Cc3cc(C4CCN(Cc5cc(C(F)(F)F)cc(C(F)(F)F)c5)CC4)ccc3C2=O)C(=O)N1 (stereo not drawn) [Compound I-215, 3-(5-(1-(3,5-bis(trifluoromethyl)benzyl)piperidin-4-yl)-1-oxoisoindolin-2-yl)piperidine-2,6-dione] was run?
**A.** 50%

**Q.** What about the DC50 (IKZF2) of the same molecule?
**A.** 19 nM

**Q.** And the DC50 (IKZF1)?
**A.** > 30000 nM

**Q.** O=C1CCC(N2Cc3cc(C4CCN(Cc5cccc6ncnn56)CC4)ccc3C2=O)C(=O)N1 (stereo not drawn) [Compound I-127, 3-(5-(1-([1,2,4]triazolo[1,5-a]pyridin-5-ylmethyl)piperidin-4-yl)-1-oxoisoindolin-2-yl)piperidine-2,6-dione] was tested. Which inhibition at 10 µM (IKZF2) did it give?
**A.** 45%

**Q.** What about the DC50 (IKZF2) of the same molecule?
**A.** 190 nM

**Q.** What about the DC50 (IKZF1) of the same molecule?
**A.** > 30000 nM

**Q.** CCc1ccc(CN2CCC(c3ccc4c(c3)CN(C3CCC(=O)NC3=O)C4=O)CC2)cc1 (stereo not drawn) [Compound I-66, 3-(5-(1-(4-ethylbenzyl)piperidin-4-yl)-1-oxoisoindolin-2-yl)piperidine-2,6-dione] was tested. Which inhibition at 10 µM (IKZF2) did it give?
**A.** 70%

**Q.** What about the DC50 (IKZF2) of the same molecule?
**A.** 9 nM

**Q.** What about the DC50 (IKZF1) of the same molecule?
**A.** > 30000 nM

**Q.** What does the source list for Nc1nc(C(F)(F)F)c(CN2CCC(c3ccc4c(c3)CN(C3CCC(=O)NC3=O)C4=O)CC2)s1 (stereo not drawn) [Compound I-234, 3-(5-(1-((2-amino-4-(trifluoromethyl)thiazol-5-yl)methyl)piperidin-4-yl)-1-oxoisoindolin-2-yl)piperidine-2,6-dione]?
**A.** inhibition at 10 µM (IKZF2): 50%; DC50 (IKZF2): 120 nM; DC50 (IKZF1): > 30000 nM

**Q.** With CC(c1ccccc1)N1CCC(c2ccc3c(c2)CN(C2CCC(=O)NC2=O)C3=O)CC1 (single isomer, unassigned) [Compound I-230] as the molecule, how does the inhibition at 10 µM (IKZF2) read?
**A.** 65%

**Q.** And the DC50 (IKZF2)?
**A.** 9 nM

**Q.** And the DC50 (IKZF1)?
**A.** > 30000 nM

**Q.** For N#CCOc1ccc(CN2CCC(c3ccc4c(c3)CN(C3CCC(=O)NC3=O)C4=O)CC2)cc1 (stereo not drawn) [Compound I-218, 2-(4-((4-(2-(2,6-dioxopiperidin-3-yl)-1-oxoisoindolin-5-yl)piperidin-1-yl)methyl)phenoxy)acetonitrile], which inhibition at 10 µM (IKZF2) is on record?
**A.** 60%

**Q.** What about the DC50 (IKZF2) of the same molecule?
**A.** 4 nM

**Q.** What about the DC50 (IKZF1) of the same molecule?
**A.** > 30000 nM

**Q.** How did the inhibition at 10 µM (IKZF2) turn out when O=C1CCC(N2Cc3cc(C4CCN(Cc5ccc6[nH]c(=O)[nH]c6c5)CC4)ccc3C2=O)C(=O)N1 (stereo not drawn) [Compound I-259, 3-(1-oxo-5-(1-((2-oxo-2,3-dihydro-1H-benzo[d]imidazol-5-yl)methyl)piperidin-4-yl)isoindolin-2-yl)piperidine-2,6-dione] was run?
**A.** 60%

**Q.** And the DC50 (IKZF2)?
**A.** 1300 nM

**Q.** What about the DC50 (IKZF1) of the same molecule?
**A.** > 30000 nM

**Q.** With O=C1CCC(N2Cc3cc(C4CCN(Cc5cccc(OC(F)F)c5)CC4)ccc3C2=O)C(=O)N1 (stereo not drawn) [Compound I-79, 3-(5-(1-(3-(difluoromethoxy)benzyl)piperidin-4-yl)-1-oxoisoindolin-2-yl)piperidine-2,6-dione] as the molecule, how does the inhibition at 10 µM (IKZF2) read?
**A.** 75%

**Q.** What about the DC50 (IKZF2) of the same molecule?
**A.** 3 nM

**Q.** And the DC50 (IKZF1)?
**A.** > 30000 nM

**Q.** Which results are given for Cn1ccc(CN2CCC(c3ccc4c(c3)CN(C3CCC(=O)NC3=O)C4=O)CC2)n1 (stereo not drawn) [Compound I-117, 3-(5-(1-((1-methyl-1H-pyrazol-3-yl)methyl)piperidin-4-yl)-1-oxoisoindolin-2-yl)piperidine-2,6-dione]?
**A.** inhibition at 10 µM (IKZF2): 50%; DC50 (IKZF2): 50 nM; DC50 (IKZF1): > 30000 nM

**Q.** N#Cc1ccccc1CN1CCC(c2ccc3c(c2)CN(C2CCC(=O)NC2=O)C3=O)CC1 (stereo not drawn) [Compound I-38, 2-((4-(2-(2,6-dioxopiperidin-3-yl)-1-oxoisoindolin-5-yl)piperidin-1-yl)methyl)benzonitrile] was tested. Which inhibition at 10 µM (IKZF2) did it give?
**A.** 55%

**Q.** And the DC50 (IKZF2)?
**A.** 41 nM

**Q.** And the DC50 (IKZF1)?
**A.** > 30000 nM

**Q.** What does the source list for Cc1cc2nc(CN3CCC(c4ccc5c(c4)CN(C4CCC(=O)NC4=O)C5=O)CC3)cc(O)n2n1 (stereo not drawn) [Compound I-208, 3-(5-(1-((7-hydroxy-2-methylpyrazolo[1,5-a]pyrimidin-5-yl)methyl)piperidin-4-yl)-1-oxoisoindolin-2-yl)piperidine-2,6-dione]?
**A.** inhibition at 10 µM (IKZF2): 60%; DC50 (IKZF2): 1500 nM; DC50 (IKZF1): > 30000 nM
